“Also recorded” adds a separate entry of the source.
Assays:
[1] = system: hepatic stellate cells (HSC-T6) activated by TGF-β1; assay: Hepatic stellate cells (HSC-T6) activated by TGF-β1; assay type: cell-based; details: different concentrations of KD
From the text: HSCs are important cells involved in liver fibrosis. The activation of HSCs is a key element of the development of liver fibrosis, and its apoptosis can reverse liver fibrosis. Different concentrations of KD were used to […] the hepatic stellate cells (HSC-T6) activated by TGF-β1.

[2] = system: C57 mice with D-GalN/LPS acute liver failure; assay: Acute liver failure induced by D-GalN + LPS; assay type: in vivo
Description: 60 SPF male C57 mice were purchased and raised in the SPF experimental animal center of Tongji Medical College of Huazhong University of Science and Technology. The mice were provided with standard diet and drinking water. The room temperature was controlled at 23±2° C. After 7 days of adaptive feeding, the mice were administered by intragastric administration. The mice were divided into a control group (administered with distilled water), a model group (administered with distilled water), a high dose group (KD-400 group, 400 mg/kg KD), a medium dose group (KD-200 group, 200 mg/kg KD) and a low dose group (KD-100 group, 100 mg/kg KD), ten mice each group. The mice were weighed the next day, and were continuously administered with above drugs respectively for 10 days. One hour after the last gavage, the mice were injected intraperitoneally (the control group was injected with the same amount of normal saline). The agent for the intraperitoneal injection was galactosamine (D-GalN, 500 mg/kg)+lipopolysaccharide (LPS, Eschericia coli 0111: B4, 5 ug/kg), all purchased from Sigma-Aldrich.

[3] = system: SD mice with ANIT induced intrahepatic cholestasis; assay: ANIT-induced intrahepatic cholestasis; assay type: in vivo
Description: 42 SPF SD mice were purchased and raised in the SPF experimental animal center of Tongji Medical College of Huazhong University of Science and Technology. They were provided with standard diet and drinking water. The room temperature was controlled at 23±2° C. After 3 days of adaptive feeding, they were given drugs by intragastric administration. 42 SD mice were randomly divided into 7 groups (normal control group, ANIT model group, KD low-dose group, KD medium dose group, KD high-dose group, UDCA positive control group and KD negative control group), 6 mice in each group were weighed and recorded daily. […] Thereafter, the drug was given again every 24 hours for 3 times, and the animals in each group were fasted (water was provided) after the third time. 72 hours later, the animals were killed and samples were collected.

[4] = system: C57 mice with MCD-induced NASH; assay: Nonalcoholic steatohepatitis induced by methionine choline deficiency (MCD) feed; assay type: in vivo
Description: 150 SPF male mice C57 aged 6-8 weeks were raised in the SPF experimental animal center of Tongji Medical College of Huazhong University of Science and Technology. They were provided with standard diet and drinking water. The room temperature was controlled at 23±2° C. After 7 days of adaptive feeding, they were given drugs by intragastric administration. […] The control groups were administered with normal diet. The model group and each administration group were fed with methionine choline deficiency (MCD) feed. Each group was administrated by gavage. The control group and the model group were given equal amount of thrice steamed water once a day for 8 weeks. The mice were weighed every three days. The hair color, state, food, water and defecation of each group were observed, and the death of each group was recorded. At the end of the 2nd week, 4th week and 6th week, three mice were randomly selected and killed to observe the modeling state. At the end of the 8th week, after the last administration, all mice were provided with no food but water for 12 hours, and all indexes were measured.

## O=C1C[C@@H](O[C@@H]2O[C@H](CO)[C@@H](O)[C@H](O)[C@H]2O)CO1 [KD]
[1]
  apoptosis of HSC-T6: promote its apoptosis
  cell cycle of HSC-T6: could block the cell cycle of the HSC-T6 in the G0/G1 phase
  proliferation of HSC-T6: inhibit its proliferation
[2]; KD 100-400 mg/kg, 10 days, gavage, silymarin dose not given
  bleeding and swelling of the liver (appearance): can significantly improve the bleeding and swelling of the liver
[2]; high, medium and low dose groups
  inflammatory cytokines TNF-α, IL-12p70, IFN-γ (flow cytometry kit): had significant anti-inflammatory effect
[2]; high, middle and low KD dose groups
  liver histopathological damage (H&E staining): can reduce liver histopathological damage
[2]; high-dose group
  apoptotic marker proteins PARP and C-C3 (Western blot): could reduce abnormal apoptosis of hepatocytes; also recorded: could down regulate the apoptotic protein
[2]; mouse, in vivo
  apoptosis of liver cells (Tunel fluorescence staining): could inhibit abnormal apoptosis of the liver cells
  development of acute liver failure (overall): can effectively prevent the development of acute liver failure and reduce liver damage
  endoplasmic reticulum stress, expansion and vesiculation: could down-regulate the process
  liver weight/body weight: could improve the weight gain of liver bleeding
  mitochondrial structure of the liver (transmission electron microscopy): the mitochondrial structure of the liver of the mice was protected
  oxidative stress injuries (MDA, SOD): protect the mice from the oxidative stress injuries
[3]; 100 mg/kg KD to normal mice
  plasma biochemical indexes: did not change
[3]; KD 50, 100, 200 mg/kg or UDCA 80 mg/kg by gavage
  plasma color: turned light yellow similar to that of the normal control group
[3]; cholestasis mice, high-dose KD
  expression of Fxr and Cyp7a1 genes: can significantly up regulate the expression of Fxr and Cyp7a1 genes
[3]; cholestasis mice, medium and high-dose KD
  expression of Bsep, Mrp2 and Mrp3 genes: can significantly up regulate the expression of Bsep, Mrp2 and Mrp3 genes
[3]; different doses of KD, UDCA treatment group
  hepatic sinusoid and inflammatory cell infiltration (HE staining): the expansion of hepatic sinusoid was improved and the infiltration of inflammatory cells was reduced
[3]; low, medium and high doses of KD, 80 mg/kg UDCA
  plasma ALT, AST, AKP, TBIL and DBIL: can significantly reduce ALT, AST, AKP, TBIL and DBIL
[3]; medium and high doses of KD, 80 mg/kg UDCA
  plasma TBA: can significantly reduce TBA
[3]; mouse, in vivo
  ANIT-induced intrahepatic cholestasis liver injury (overall): can alleviate the liver injury induced by ANIT; also recorded: has a good therapeutic effect on ANIT-induced intrahepatic cholestasis liver injury
[4]; 8 w, high-dose KD group
  lipid droplet area of sections (Image J), compared with the positive group: even better than that of the positive group
[4]; 40, 20 and 10 mg/kg KD
  liver fat accumulation (oil red O staining): Fat accumulation in liver was significantly reduced
[4]; KD group at different doses
  liver cell apoptosis / Cleaved Caspase3 (CC3) protein (immunohistochemical staining): could reduce the liver cell apoptosis to varying degrees, thus reducing the expression of liver CC3 protein
[4]; KD high-dose group
  expression of Bcl-2, Bax and Casp3 genes in liver (RT-qPCR): significantly increased the expression of anti-apoptotic gene Bcl-2, decreased the expression of pro-apoptotic gene Bax, reduced the expression of apoptotic marker gene Casp3
[4]; all the KD groups, 8 weeks
  fiber formation (Masson staining, fiber area): the liver fiber content decreased, and the effect of KD was even better than that of the positive drug group; also recorded: had inhibitory effect on the fiber formation
[4]; different doses of KD
  liver coefficient (liver index): could reduce liver fat and normalize the liver index; also recorded: reduce liver coefficient
[4]; different doses of KD, 8 weeks
  ALT and AST levels in the serum: the AST and ALT levels were decreased in each dose group of KD; also recorded: could significantly reduce the ALT and AST levels in the serum
[4]; each KD dose group
  expression of fibrotic marker protein α-SMA (Western blot, immunohistochemistry): could reduce the expression of α-SMA; also recorded: could be reduced in each KD dose group
[4]; each KD group
  lipid content: slightly increased
[4]; each dose group of KD
  serum HA and LN (ELISA): could significantly reduce the content of HA and LN; also recorded: could reduce the content of HA and LN in varying degrees
[4]; mouse, in vivo
  expression of Bcl-xl and BAX proteins in liver (Western Blot): the expression of anti-apoptotic protein Bcl-xl was increased, and the proapoptotic protein BAX was inhibited
  expression of MMP-13 in the liver (qPCR): increase the expression of matrix metalloproteinase-13 (MMP-13)
  expression of pro-apoptotic and anti-apoptotic genes and proteins: could also reduce the expression of pro-apoptotic genes and proteins, and increase the expression of anti-apoptotic genes
  expression of α-SMA, Col I, TIMP-1 and TGF-β in the liver (qPCR): could effectively inhibit the expression
  inflammatory infiltration of liver (HE staining): could inhibit the inflammatory infiltration of liver
  oxidative stress (SOD, MDA in liver): SOD content in the liver increased and oxidative product MDA decreased; also recorded: could reverse the oxidative stress injuries
  shear wave velocity / liver hardness (SWE): the liver hardness of the KD group decreased; also recorded: could significantly reduce the shear wave velocity
  therapeutic effect on MCD-induced NASH (overall, vs silymarin and Fuzheng Huayu capsule): dose-dependent, and its effect was similar to that of the drugs silymarin and Fuzheng Huayu capsule, and was better than that of the drugs in some indexes; also recorded: has a good therapeutic effect on MCD-induced NASH
